Laboratory results as given in US10975167B2, “Method to reduce pulmonary arterial hypertension by administering inhibitors of nicotinamide phosphoribotransferase” (Arizona Board of Regents on Behalf of the University of …, priority 2017, dated 2021).

Legend:
[1] = tested on: MCT-induced PH in rats; experiment: MCT-PH model, FK-866 analogs as preventive therapy; type: in vivo; conditions: for hypertrophy-ratio of RV and LV plus septal-S weight (RVH-RV) / right ventricular systolic pressure (RVSP): preliminary studies in MCT-PH
Protocol: FIG. 10A is a bar graph showing normalized NAMPT activity in the present of FK866 and FK analogues MS-1-82, Rari049, Alp-135 at 0.1, 1, and 10 μM concentrations. FIG. 10B is a bar graph showing RVSP in MCT-induced PH in rats and in MCT-induced PH in rats with Rari049 (2.5 mg/kg, i.p. BID, ×2 wks) (RVSP-right ventricular systolic pressure, RVH-RV hypertrophy-ratio of RV and LV plus septal-S weight).

[2] = target: T1, NAMPT (Homo sapiens, UniProt P43490); experiment: CycLex NAMPT Colorimetric Assay, NAMPT enzymatic activity; type: biochemical; conditions: three doses 0.1, 1, 10 uM
T1 construct: purchased MBL International (Woburn, Mass.)
T1 sequence (P43490 whole entry): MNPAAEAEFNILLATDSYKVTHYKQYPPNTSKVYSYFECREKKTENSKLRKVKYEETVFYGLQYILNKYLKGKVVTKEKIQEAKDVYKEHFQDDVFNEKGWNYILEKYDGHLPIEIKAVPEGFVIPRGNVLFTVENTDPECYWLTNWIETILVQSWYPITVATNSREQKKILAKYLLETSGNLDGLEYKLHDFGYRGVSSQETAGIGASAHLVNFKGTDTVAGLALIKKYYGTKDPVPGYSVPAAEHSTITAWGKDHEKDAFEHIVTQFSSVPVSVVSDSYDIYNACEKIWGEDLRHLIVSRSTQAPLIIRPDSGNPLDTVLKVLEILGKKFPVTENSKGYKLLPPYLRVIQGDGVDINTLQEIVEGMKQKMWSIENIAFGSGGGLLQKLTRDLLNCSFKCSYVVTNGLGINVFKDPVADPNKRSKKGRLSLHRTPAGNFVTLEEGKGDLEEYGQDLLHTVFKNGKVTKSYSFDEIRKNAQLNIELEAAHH
Protocol: CycLex NAMPT Colorimetric Assay Kit was purchased from MBL International (Woburn, Mass.) and utilized to screen the effect of putative NAMPT inhibitors on NAMPT enzymatic activity. Three doses (0.1, 1, 10 uM) of each NAMPT inhibitors was used following the manufacturer's instruction.

[3] = tested on: Human pulmonary artery endothelial cells (EC); experiment: TNF-α-induced apoptosis / PARP-1 cleavage in human lung endothelial cells; type: cell-based
Protocol: Human pulmonary artery endothelial cells (EC) were obtained from Lonza (Walkersville Md.) and were cultured in the manufacturer's recommended endothelial growth medium-2 (EGM-2). Cells were grown at 37° C. in a 5% CO2 incubator, and passages 6 to 9 were used for experiments. Media was changed one day before experimentation. For RNA interference, siRNAs were transfected into EC at a final concentration of 100 nM for 72 hrs. Protein quantification and Western blot analysis were performed according to standard procedures.
(B) ECs were pre-treated (6 hrs) with either vehicle (DMSO) or with a caspase-3 inhibitor (z-DEVD-fmk, 20 μM) prior to 24 hr challenge with TNF-α (30 ng/ml), FasL (100 ng/ml) or tBHP (5 mM). […] (C) ECs were transfected with myc-tagged NAMPT plasmid resulting in marked NAMPT overexpression. […] Error bars indicate SEM of three independent experiments.

[4] = tested on: hPASMCs; experiment: TUNEL apoptosis assay in hPASMCs; type: cell-based, human; conditions: FK866 10 μM, 24 hrs
Protocol: hPASMCs were cultured on a coverslip in a 6-well cell culture plate. H2O2 (100 μM, Sigma, Cat. #ab66110) was used as an apoptosis stimulus for hPASMCs.
When cell confluence reached 95%, cells were starved for 3 hrs and stimulated by H2O2, FK866 (10 μM), H2O2+rhNAMPT (20 μg/ml) or H2O2+rhNAMPT (20 μg/ml) with FK866 (10 μM) for 24 hrs. Cell apoptosis was examined using an in situ BrdU-Red DNA fragmentation (TUNEL) kit. The cells on the coverslips were examined using a Nikon Eclipse E800 fluorescence microscope, and the images were processed by MetaMorph software (Molecular Devices, Inc.). Approximately ten images were taken from each condition, and over 500 cells were counted according to DAPI staining.

[5] = MCT-PH, 2.5 mg/kg, i.p. BID, ×2 wks

O=C(/C=C/c1cccnc1)NCCCCCCn1c2ccccc2c2ccccc21 [Alp135]
hypertrophy-ratio of RV and LV plus septal-S weight (RVH-RV) [1]: reducing | right ventricular systolic pressure (RVSP) [1]: reducing | NAMPT enzyme inhibitory properties [2]: excellent dose-dependent enzyme inhibitory properties

O=C(/C=C/c1cccnc1)NCCCCC1CCN(C(=O)c2ccccc2)CC1 [FK866, (E)-N-[4-(1-Benzoylpiperidin-4-yl)butyl]-3-pyridin-3-ylprop-2-enamide, reference compound]
TNFα-induced EC apoptosis ([3]; human lung EC): failed to alter | hPASMC apoptosis (TUNEL positive cells) [4]: promotes

O=C(/C=C/c1cccnc1)NCCCCCCNC(=O)c1cccnc1 [MS-1-82]
NAMPT enzyme inhibitory properties [2]: excellent dose-dependent enzyme inhibitory properties

O=C(/C=C/c1cccnc1)NCCCCCCn1c(-c2ccccc2)cc2ccccc21 [Rari049]
RVH [1, 5]: reducing | RVSP [1, 5]: reducing | hypertrophy-ratio of RV and LV plus septal-S weight (RVH-RV) [1]: reducing | right ventricular systolic pressure (RVSP) [1]: reducing | NAMPT enzyme inhibitory properties [2]: excellent dose-dependent enzyme inhibitory properties

z-DEVD-fmk
PARP-1 cleavage induced by TNF-α ([3]; pre-incubated 6 hrs, 20 μM, TNF-α 30 ng/ml 24 hrs, vs vehicle (DMSO)): significantly reduced
